# Reference: US20030166922A1, “Novel cephalosporin compounds and process for preparing the same” (priority 2000, published 2003)
# Assays:
# Assay in all cases: Minimum Inhibitory Concentration (MIC), agar dilution, standard strains
# [1] = tested on: Staphylococcus aureus giorgio; assay type: cell-based; conditions: Table 1, Mueller-Hinton agar, 37° C., 20 hours; for MIC: Staphylococcus aureus, read-out: Minimum Inhibitory Concentration (MIC), Staphylococcus aureus giorgio
# Method: (§1) Minimum Inhibitory Concentration (MIC)
# (§2) The effectiveness of the compound according to the present invention was determined by obtaining Minimum Inhibitory Concentration (MIC) of the compounds prepared by the above Examples (I-1 to I-33) and vancomycin, which is the known compound having a potent activity against gram-positive strains, as the control drug against the standard strains. Specifically, Minimum Inhibitory Concentration was obtained by diluting the test material with a double dilution method, dispersing them in Mueller-Hinton agar medium, inoculating each of the test strain having 10^7 cfu (colny forming unit) in an amount of 2:1 to the medium and then incubating them at 37° C. for 20 hours.
# E. faecalis L239 = assay type: cell-based; conditions: Table 1, Mueller-Hinton agar, 37° C., 20 hours; for MIC: Enterococcus faecalis, L239, read-out: Minimum Inhibitory Concentration (MIC), E. faecalis L239
# Method: as §1, §2
# S. epidermidis R005 = assay type: cell-based; conditions: Table 1, Mueller-Hinton agar, 37° C., 20 hours; for MIC: Staphylococcus epidermidis, R005, read-out: Minimum Inhibitory Concentration (MIC), S. epidermidis R005
# Method: as §1, §2
# S. aureus 77 = assay type: cell-based, Staphylococcus aureus; conditions: Table 1, Mueller-Hinton agar, 37° C., 20 hours; for MIC: Staphylococcus aureus, 77, read-out: Minimum Inhibitory Concentration (MIC), S. aureus 77
# Method: as §1, §2
# S. aureus 241 = assay type: cell-based, Staphylococcus aureus; conditions: Table 1, Mueller-Hinton agar, 37° C., 20 hours; for MIC: Staphylococcus aureus, 241, read-out: Minimum Inhibitory Concentration (MIC), S. aureus 241
# Method: as §1, §2
compound,measurement,setting,value
"Nc1nc(O)cc(SCSC2=C(C(=O)O)N3C(=O)[C@@H](NC(=O)CSc4c(Cl)cccc4Cl)[C@H]3SC2)n1 [Example I-3, (6R,7R)-3-({[(2-amino-6-hydroxy-4-pyrimidinyl)sulfanyl]methyl}sulfanyl)-7-({2-[(2,6-dic hlorophenyl)sulfanyl]acetyl}amino)-8-oxo-5-thia-1-azabicyclo[4.2.0]oct-2-ene-2-carboxylic acid]",MIC,[1],< 0.008 µg/mL
same,MIC,E. faecalis L239,0.5 µg/mL
same,MIC,S. epidermidis R005,0.13 µg/mL
same,MIC,S. aureus 77,0.25 µg/mL
same,MIC,S. aureus 241,8 µg/mL
"Nc1nc(O)cc(SCSC2=C(C(=O)O)N3C(=O)[C@@H](NC(=O)CSc4cc(Cl)ccc4Cl)[C@H]3SC2)n1 [Example I-2, (6R,7R)-3-({[(2-amino-6-hydroxy-4-pyrimidinyl)sulfanyl]methyl}sulfanyl)-7-({2-[(2,5-dic hlorophenyl)sulfanyl]acetyl}amino)-8-oxo-5-thia-1-azabicyclo[4.2.0]oct-2-ene-2-carboxylic acid]",MIC,[1],< 0.008 µg/mL
same,MIC,E. faecalis L239,0.25 µg/mL
same,MIC,S. epidermidis R005,0.063 µg/mL
same,MIC,S. aureus 77,0.13 µg/mL
same,MIC,S. aureus 241,1 µg/mL
"Nc1cc(N)nc(SCSC2=C(C(=O)O)N3C(=O)[C@@H](NC(=O)CSc4cc(Cl)ccc4Cl)[C@H]3SC2)n1 [Example I-16, (6R,7R)-3-({[(4,6-diamino-2-pyrimidinyl)sulfanyl]methyl}sulfanyl)-7-({2-[(2,5-dichlorophenyl)sulfanyl]acetyl}amino)-8-oxo-5-thia-1-azabicyclo[4.2.0]oct-2-ene-2-carboxylic acid]",MIC,[1],< 0.008 µg/mL
same,MIC,E. faecalis L239,0.5 µg/mL
same,MIC,S. epidermidis R005,0.063 µg/mL
same,MIC,S. aureus 77,0.25 µg/mL
same,MIC,S. aureus 241,2 µg/mL
"Cc1c(N)nc([S+]([O-])CSC2=C(C(=O)O)N3C(=O)[C@@H](NC(=O)CSc4cc(Cl)ccc4Cl)[C@H]3SC2)[n+](N)c1N (stereo partly drawn) [Example I-23, (6R,7R)-1,4,6-triamino-2-[({[(2-carboxy-7-({2-[(2,5-dichlorophenyl)sulfan-yl]acetyl}amino)-8-oxo-5-thia-1-azabicyclo[4.2.0]oct-2-en-3-yl)]sulfanyl}methyl)sulfin-yl]-5-methylpyri midin-1-ium]","Minimum Inhibitory Concentration (MIC), Staphylococcus aureus giorgio",[1],0.5 :g/ml
same,"Minimum Inhibitory Concentration (MIC), E. faecalis L239",E. faecalis L239,16 :g/ml
same,"Minimum Inhibitory Concentration (MIC), S. epidermidis R005",S. epidermidis R005,8 :g/ml
same,"Minimum Inhibitory Concentration (MIC), S. aureus 77",S. aureus 77,8 :g/ml
same,"Minimum Inhibitory Concentration (MIC), S. aureus 241",S. aureus 241,>32 :g/ml
"Nc1nc(SCSC2=C(C(=O)O)N3C(=O)[C@@H](NC(=O)CSc4cc(Cl)ccc4Cl)[C@H]3SC2)nc2c1CCC2 [Example I-9, (6R,7R)-3-({[(4-amino-6,7-dihydro-5H-cyclopenta[d]pyrimidin-2-yl)sulfany-1]methyl}sulfanyl)-7-({2-[(2,5-dichlorophenyl)sulfanyl]acetyl}amino)-8-oxo-5-thia-1-aza-bicyclo[4.2.0]oct-2-ene-2-carboxylic acid]","Minimum Inhibitory Concentration (MIC), Staphylococcus aureus giorgio",[1],<0.008 :g/ml
same,"Minimum Inhibitory Concentration (MIC), E. faecalis L239",E. faecalis L239,0.25 :g/ml
same,"Minimum Inhibitory Concentration (MIC), S. epidermidis R005",S. epidermidis R005,0.25 :g/ml
same,"Minimum Inhibitory Concentration (MIC), S. aureus 77",S. aureus 77,0.25 :g/ml
same,"Minimum Inhibitory Concentration (MIC), S. aureus 241",S. aureus 241,4 :g/ml
"Nc1ncnc(SCSC2=C(C(=O)O)N3C(=O)[C@@H](NC(=O)CSc4cc(Cl)ccc4Cl)[C@H]3SC2)c1N [Example I-17, (6R,7R)-3-({[(5,6-diamino-4-pyrimidinyl)sulfanyl]methyl}sulfanyl)-7-({2-[(2,5-dichlorophenyl)sulfanyl]acetyl}amino)-8-oxo-5-thia-1-azabicyclo[4.2.0]oct-2-ene-2-carboxylic acid]",MIC,[1],0.016 µg/mL
same,MIC,E. faecalis L239,0.5 µg/mL
same,MIC,S. epidermidis R005,0.25 µg/mL
same,MIC,S. aureus 77,0.13 µg/mL
same,MIC,S. aureus 241,2 µg/mL
"Cc1c(N)nc(SCSC2=C(C(=O)O)N3C(=O)[C@@H](NC(=O)CSc4cc(Cl)ccc4Cl)[C@H]3SC2)nc1N [Example I-18, (6R,7R)-3-({[(4,6-diamino-5-methyl-2-pyrimidinyl)sulfanyl]methyl}sulfan-yl)-7-({2-[(2,5-dichlorophenyl)sulfanyl]acetyl}amino)-8-oxo-5-thia-1-azabicyclo[4.2.0]oc-t-2-ene-2-carb oxylic acid]","Minimum Inhibitory Concentration (MIC), Staphylococcus aureus giorgio",[1],0.016 :g/ml
same,"Minimum Inhibitory Concentration (MIC), E. faecalis L239",E. faecalis L239,0.5 :g/ml
same,"Minimum Inhibitory Concentration (MIC), S. epidermidis R005",S. epidermidis R005,0.25 :g/ml
same,"Minimum Inhibitory Concentration (MIC), S. aureus 77",S. aureus 77,0.25 :g/ml
same,"Minimum Inhibitory Concentration (MIC), S. aureus 241",S. aureus 241,4 :g/ml
"Nc1cc(SCSC2=C(C(=O)O)N3C(=O)[C@@H](NC(=O)CSc4cc(Cl)ccc4Cl)[C@H]3SC2)nc(N)n1 [Example I-1, (6R,7R)-3-({[(2,6-diamino-4-pyrimidinyl)sulfanyl]methyl}sulfanyl)-7-({2-[(2,5-dichlorophenyl)sulfanyl]acetyl}amino)-8-oxo-5-thia-1-azabicyclo[4.2.0]oct-2-ene-2-carboxylic acid]",MIC,[1],< 0.008 µg/mL
same,MIC,E. faecalis L239,0.25 µg/mL
same,MIC,S. epidermidis R005,0.063 µg/mL
same,MIC,S. aureus 77,0.063 µg/mL
same,MIC,S. aureus 241,1 µg/mL
"(6R,7R)-2,4-diamino-6-[({[2-carboxy-7-({2-[(2,5-dichlorophenyl)sulfany-1]acetyl}amino)-8-oxo-5-thia-1-azabicyclo[4.2.0]oct-2-en-3-yl]sulfanyl}methyl)sulfanyl]-1-ethyl-1,3,5-tria zine-1,3-diium [Example I-20]","Minimum Inhibitory Concentration (MIC), Staphylococcus aureus giorgio",[1],<0.008 :g/ml
same,"Minimum Inhibitory Concentration (MIC), E. faecalis L239",E. faecalis L239,0.5 :g/ml
same,"Minimum Inhibitory Concentration (MIC), S. epidermidis R005",S. epidermidis R005,0.5 :g/ml
same,"Minimum Inhibitory Concentration (MIC), S. aureus 77",S. aureus 77,1 :g/ml
same,"Minimum Inhibitory Concentration (MIC), S. aureus 241",S. aureus 241,8 :g/ml
"Nc1cc(SCSC2=C(C(=O)O)N3C(=O)[C@@H](NC(=O)CSc4cc(Cl)ccc4Cl)[C@H]3SC2)nc(O)n1 [Example I-4, (6R,7R)-3-({[(6-amino-2-hydroxy-4-pyrimidinyl)sulfanyl]methyl}sulfanyl)-7-({2-[(2,5-dic hlorophenyl)sulfanyl]acetyl}amino)-8-oxo-5-thia-1-azabicyclo[4.2.0]oct-2-ene-2-carboxylic acid]",MIC,[1],< 0.008 µg/mL
same,MIC,E. faecalis L239,0.5 µg/mL
same,MIC,S. epidermidis R005,0.25 µg/mL
same,MIC,S. aureus 77,0.25 µg/mL
same,MIC,S. aureus 241,4 µg/mL
"(6R,7R)-2,4-diamino-6-[({[2-carboxy-7-({2-[(2,5-dichlorophenyl)sulfany-1]acetyl}amino)-8-oxo-5-thia-1-azabicyclo[4.2.0]oct-2-en-3-yl]sulfanyl}methyl)sulfanyl]-1-methylpyrimidi n-1-ium [Example I-15]","Minimum Inhibitory Concentration (MIC), Staphylococcus aureus giorgio",[1],<0.008 :g/ml
same,"Minimum Inhibitory Concentration (MIC), E. faecalis L239",E. faecalis L239,0.25 :g/ml
same,"Minimum Inhibitory Concentration (MIC), S. epidermidis R005",S. epidermidis R005,0.13 :g/ml
same,"Minimum Inhibitory Concentration (MIC), S. aureus 77",S. aureus 77,0.13 :g/ml
same,"Minimum Inhibitory Concentration (MIC), S. aureus 241",S. aureus 241,1 :g/ml
"Nc1cc[n+](N)c(SCSC2=C(C(=O)O)N3C(=O)[C@@H](NC(=O)CSc4cc(Cl)ccc4Cl)[C@H]3SC2)n1 [Example I-7, 1,4-diamino-2-[({[(6R,7R)-2-carboxy-7-({2-[(2,5-dichlorophenyl)sulfanyl]ac-etyl}amino)-8-oxo-5-thia-1-azabicyclo[4.2.0]oct-2-en-3-yl)sulfanyl}methyl)sulfanyl]pyri-midin-1-ium]","Minimum Inhibitory Concentration (MIC), Staphylococcus aureus giorgio",[1],<0.008 :g/ml
same,"Minimum Inhibitory Concentration (MIC), E. faecalis L239",E. faecalis L239,0.13 :g/ml
same,"Minimum Inhibitory Concentration (MIC), S. epidermidis R005",S. epidermidis R005,0.063 :g/ml
same,"Minimum Inhibitory Concentration (MIC), S. aureus 77",S. aureus 77,0.13 :g/ml
same,"Minimum Inhibitory Concentration (MIC), S. aureus 241",S. aureus 241,2 :g/ml
"Nc1nc(SCSC2=C(C(=O)O)N3C(=O)[C@@H](NC(=O)CSc4cc(Cl)ccc4Cl)[C@H]3SC2)c2c([n+]1N)CCC2 [Example I-11, (6R,7R)-1 ,2-diamino-4-[({(E)-3-[2-carboxy-7-({2-[(2,5-dichlorophenyl)sulf-anyl]acetyl}amino)-8-oxo-5-thia-1-azabicyclo[4.2.0]oct-2-en-3-yl]sulfanyl}methyl)sulfan-yl]-6,7-dihyd ro-5H-cyclopenta[d]pyrimidin-1-ium]","Minimum Inhibitory Concentration (MIC), Staphylococcus aureus giorgio",[1],<0.008 :g/ml
same,"Minimum Inhibitory Concentration (MIC), E. faecalis L239",E. faecalis L239,0.25 :g/ml
same,"Minimum Inhibitory Concentration (MIC), S. epidermidis R005",S. epidermidis R005,0.063 :g/ml
same,"Minimum Inhibitory Concentration (MIC), S. aureus 77",S. aureus 77,0.063 :g/ml
same,"Minimum Inhibitory Concentration (MIC), S. aureus 241",S. aureus 241,1 :g/ml
"CNc1[n+](C)c(N)nc(SCSC2=C(C(=O)O)N3C(=O)[C@@H](NC(=O)CSc4cc(Cl)ccc4Cl)[C@H]3SC2)[n+]1N [Example I-19, (6R,7R)-1,4-diamino-6-[({[2-carboxy-7-({2-[(2,5-dichlorophenyl)sulfany-1]acetyl}amino)-8-oxo-5-thia-1-azabicyclo[4.2.0]oct-2-en-3-yl]sulfanyl}methyl)sulfanyl]-3-methyl-2-(methylamino)-1,3,5-triazine-1,3-diium]","Minimum Inhibitory Concentration (MIC), Staphylococcus aureus giorgio",[1],0.063 :g/ml
same,"Minimum Inhibitory Concentration (MIC), E. faecalis L239",E. faecalis L239,4 :g/ml
same,"Minimum Inhibitory Concentration (MIC), S. epidermidis R005",S. epidermidis R005,2 :g/ml
same,"Minimum Inhibitory Concentration (MIC), S. aureus 77",S. aureus 77,4 :g/ml
same,"Minimum Inhibitory Concentration (MIC), S. aureus 241",S. aureus 241,32 :g/ml
